Values joined by “and” are separate entries in the source; they are usually repeats but may differ in a detail not shown here. Equal entries are not always repeated.
Assays:
[1] = Pharmacokinetic study after IV injection in rats; assay type: in vivo; conditions: male, Sprague-Dawley, plasma, rat
Text: Male Sprague–Dawley rats (7-week-old) and male Institute of Cancer Research (ICR) mice (5-week-old) were purchased from Orient Bio (Seongnam, Korea) and Samtako Bio (Osan, Korea), respectively. The experimental animals were housed under conventional conditions and fasted overnight before surgery for catheterization. All procedures for animal experiments were in accordance with the guidelines by the Ewha Woman’s University Institutional Animal Care and Use Committee (IACUC, 15-049 and 16-062), Korea.
The HPLC system used for this study was an Agilent HP1100 equipped with a quaternary pump with degasser, a variable wavelength detector, a thermostatted auto-sampler, and an HPLC 2D Agilent ChemStation software. A capcell-pak C18 MG120 column (3.0 × 250 mm, 5 µm, Shiseido, Tokyo, Japan) was used at 25 °C. The mobile phase was composed of water (0.1% trifluoroacetic acid) and acetonitrile (0.1% trifluoroacetic acid) (57:43 (v/v) for J2 and 50:50 (v/v) for NA49, respectively), filtered through a 0.45 μm Millipore filter and degassed prior to use, and the flow rate was 0.5 mL/min. UV detection was performed at 248 nm for J2 and at 246 nm for NA49, and the injection volume was 40 µL for both compounds. […] The accuracy (%) was calculated by dividing the mean of the measured drug concentration by the theoretical drug concentration. […] After extraction, the supernatant was transferred to a clean insert for HPLC analysis.
J2 and NA49 were dissolved in 10% DMAc and 10% Tween® 80 solution in saline to a concentration of 2.5 mg/mL for pharmacokinetic studies. The common carotid artery of the rat was catheterized under anesthesia using isoflurane the day before administration of J2 and NA49 [27]. Rats were divided into four groups. J2 and NA49 were administered to rats by intravenous (IV) injection at doses of 2 mg/kg and 10 mg/kg, respectively. Blood samples (0.2~0.25 mL) were collected at 0, 0.033, 0.083, 0.167, 0.33, 0.67, 1, 2, 3, 5, 7, 9, and 24 h following IV administration. The plasma samples obtained after centrifugation of the blood samples were stored at −20°C until HPLC analysis. The following pharmacokinetic parameters of J2 and NA49 were estimated by non-compartmental analysis using WinNonlin® Professional version 5.2 software (Pharsight Corporation, Mountain View, CA, USA): Initial drug concentration (C0), area under the plasma concentration–time curve from 0 h to the final sampling time point (AUC0-last), elimination half-life (t1/2), apparent volume of distribution (Vd), and total clearance (Cl).

[2] = Stability tests of the analytes (HPLC method validation, rat plasma); assay type: physicochemical; conditions: for Stability of standard stock solution: 1 mg/mL
Protocol: pounds. The analytical method of the analytes was validated by FDA Bioanalytical Method Validation Guidance for Industry. The chromatogram of the rat plasma spiked with J2 and SW15 (IS) or NA49 and NA27 was compared with that of the blank rat plasma in order to confirm the specificity of the analytical method. The calibration curves of J2 and NA49 in rat plasma was built for nine concentration levels in the range of 0.025–10 µg/mL. The sensitivity of detection was evaluated by the lower limit of quantification […]
than the baseline noise. The intra-day precision and accuracy were estimated by analyzing five sets of four quality control (QC) samples (0.025, 0.05, 0.5 and 5 µg/mL) in the same day. The inter-day precision and accuracy were evaluated by analyzing a set of four QC samples on five different days. The precision was expressed as a coefficient of variation (CV%) by calculating the ratio of the standard deviation to the mean measured drug con-centration. The accuracy (%) was calculated by dividing a mean measured drug concen-tration by the theoretical drug concentration. The recovery of the analytes from the plasma samples was evaluated at low and high concentrations (0.05 and 5 µg/mL, respectively) by comparing the peak areas of the analytes after extraction to those before extraction. […]
The short-term stability tests were conducted at room temperature for 4 h for J2 and 6 h for […], while the long-term stability tests were performed at −20°C and −70°C for 2 weeks and 4 weeks, respectively. The stability of the analytes following three freeze-thaw cycles, the post-preparative stability and the stock solution stability were also exam-ined. Each blood sample collected from the experimental animals was transferred into an […]

[3] = Kinetic solubility by nephelometry; assay type: physicochemical; conditions: aqueous buffer, kinetic from dmso stock; pH 7, nephelometry
Protocol: (§1) Permeability was evaluated with a parallel artificial membrane permeability (PAMPA) assay using an artificially generated lipid-infused membrane.

[4] = test system: NIH 3T3: mouse embryonic fibroblast cell line; assay: Cytotoxicity in normal mammalian cells (NIH 3T3); assay type: cell-based; conditions: NIH3T3, 24 h, 0.01-100 μM, read-out: IC50 of compounds in various normal mammalian cells
CYP450 2D6 = CYP450 2D6 (Homo sapiens, UniProt P10635); assay: CYP450 enzyme inhibition, 2D6; assay type: in vitro ADME; conditions: compound 0.05~50 μM; read-out: IC50 against CYP450 isotype 2D6
CYP450 2C19 = CYP450 2C19 (Homo sapiens, UniProt P33261); assay: CYP450 enzyme inhibition, 2C19; assay type: in vitro ADME; conditions: compound 0.05~50 μM; read-out: IC50 against CYP450 isotype 2C19
Protocol: as §1

[5] = test system: L929: NCTC clone 929, mouse fibroblast cell line; assay: Cytotoxicity in normal mammalian cells (L929); assay type: cell-based; conditions: L929, 24 h, 0.01-100 μM, read-out: IC50 of compounds in various normal mammalian cells
PAMPA permeability assay = assay type: in vitro ADME; conditions: for Papp: read-out: Cell Permeability Log Papp (converted)
Protocol: as §1

normal mammalian cells = assay: Cytotoxicity, range over the normal mammalian cell panel; assay type: cell-based; conditions: HFL-1, L929, NIH3T3, CHO-K1, VERO; 24 h; read-out: IC50 values, range over the normal cell lines
HSP27 = test system: T1, HSP27; assay: HSP27 cross-linking in NCI-H460 cells (Western blot); assay type: cell-based, human; conditions: 0-20 μM, 24 h
T1 construct: endogenous in cells; host or cells: NCI-H460
Protocol: For polyacrylamide gel electrophoresis (PAGE) and Western blot (WB) analysis, cells were lysed with radioimmunoprecipitation assay (RIPA) buffer (50 mM Tris-HCl [pH 7.5], 150 mM NaCl, 1% NP-40, 0.1% sodium dodecyl sulfate (SDS), and 1% sodium deoxycholate) supplemented with 1 mM Na3VO4, 1 mM dithiothreitol (DTT), 1 mM phenyl-methyl-sulfonyl fluoride (PMSF), and protease inhibitor cocktail (Calbiochem). The samples were boiled for 5 min, and equal amounts of protein were analyzed by SDS-PAGE. […]
( B) NCI-H460 cells were tr eated with J2 or NA49 (0, 1, 5, 10 and 20 μM) for 24 h, and cell lysates were
detected by Western blot analysis. […]

CYP450 2C19, sequence (P33261 whole entry): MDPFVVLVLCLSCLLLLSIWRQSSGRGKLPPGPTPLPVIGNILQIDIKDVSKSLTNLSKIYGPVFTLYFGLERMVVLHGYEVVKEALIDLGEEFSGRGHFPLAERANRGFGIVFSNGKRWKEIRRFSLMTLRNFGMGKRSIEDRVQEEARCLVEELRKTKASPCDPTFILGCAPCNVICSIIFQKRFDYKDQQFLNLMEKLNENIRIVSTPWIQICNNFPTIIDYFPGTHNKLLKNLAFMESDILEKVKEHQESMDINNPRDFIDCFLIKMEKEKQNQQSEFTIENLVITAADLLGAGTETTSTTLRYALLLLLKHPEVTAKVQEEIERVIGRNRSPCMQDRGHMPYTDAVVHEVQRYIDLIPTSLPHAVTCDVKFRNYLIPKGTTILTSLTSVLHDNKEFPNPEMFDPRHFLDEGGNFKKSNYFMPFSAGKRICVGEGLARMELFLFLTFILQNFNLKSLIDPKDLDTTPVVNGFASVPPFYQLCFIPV
CYP450 2D6, sequence (P10635 whole entry): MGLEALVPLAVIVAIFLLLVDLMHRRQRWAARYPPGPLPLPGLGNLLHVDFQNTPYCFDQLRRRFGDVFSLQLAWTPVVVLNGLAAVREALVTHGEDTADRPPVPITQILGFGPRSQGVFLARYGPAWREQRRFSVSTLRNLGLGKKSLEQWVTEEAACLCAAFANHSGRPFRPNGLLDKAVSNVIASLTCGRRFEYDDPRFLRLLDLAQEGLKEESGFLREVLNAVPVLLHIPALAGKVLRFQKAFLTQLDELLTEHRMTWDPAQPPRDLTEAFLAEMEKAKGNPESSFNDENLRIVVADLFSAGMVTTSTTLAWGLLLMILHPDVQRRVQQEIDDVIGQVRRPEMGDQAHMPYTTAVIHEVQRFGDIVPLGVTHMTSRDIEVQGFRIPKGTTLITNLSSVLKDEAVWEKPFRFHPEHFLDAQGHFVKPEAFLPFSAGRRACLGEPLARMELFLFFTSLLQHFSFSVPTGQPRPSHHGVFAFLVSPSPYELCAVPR

Row | Structure (SMILES) | AUC(0-t) ([1]; 2 mg/kg) [ng·h/mL] | C0 ([1]; 2 mg/kg) [ng/mL] | Vd ([1]; 2 mg/kg) [L] | clearance ([1]; 2 mg/kg) [mL/min] | half-life ([1]; 2 mg/kg) [min] | AUC(0-t) ([1]; 10 mg/kg) [ng·h/mL] | C0 ([1]; 10 mg/kg) [ng/mL] | Vd ([1]; 10 mg/kg) [L] | clearance ([1]; 10 mg/kg) [mL/min] | half-life ([1]; 10 mg/kg) [min] | Stability of post-preparative sample [2] | Stability of standard stock solution [2] [%] | solubility kinetic [3] | IC50 [4] [µM] | IC50 (CYP450 2D6) [µM] | IC50 (CYP450 2C19) [µM] | IC50 [5] [µM] | Cell permeability, rating (PAMPA permeability assay) | Papp (PAMPA permeability assay) [×10⁻⁶ cm/s] | IC50 (normal mammalian cells) [µM] | other results
1 | Cc1cc(=O)c2c(O)cc(OCC3CS3)cc2o1 (centres unmarked) [J2] | 180 ± 50 | 1640 ± 730 | 0.77 ± 0.27 | 46.5 | 11.4 ± 4.2 | 1480 ± 750 | 6960 ± 2600 | 1.05 ± 0.72 | 31.7 | 27 ± 18 | 102.2–103.4% | 113.2 | 73.2 µM and 19.5 µg/mL | > 100 | > 50 | > 50 | > 100 | low | 12.6 | ≥ 91.8 | Stability after three freeze–thaw cycles, mean ([2]; low concentration (0.05 µg/mL)): 116.6%; Stability at −70°C for 4 weeks, mean ([2]; low concentration (0.05 µg/mL)): 115.2%; HSP27 cross-linking activity (altered dimerization) (HSP27): altered dimerization was detected
2 | COc1ccc(-c2coc3cc(OCC4CS4)ccc3c2=O)c(OC)c1 (centres unmarked) [NA49] | 210 ± 70 | 720 ± 400 | 3.35 ± 1.69 | 30.7 | 84 ± 50.4 | 1240 ± 590 | 4960 ± 1120 | 4.13 ± 1.87 | 30 | 93 ± 28.8 | 96.9–102.4% | 98.7 | 90.2 µM and 33.4 µg/mL | 96.5 | > 50 | > 50 | 91.9 | moderate | 32.4 | 83.6 to 96.5 | HSP27 cross-linking activity (altered dimerization) (HSP27): slightly less than J2
